Laboratory results published in patent publication US20220287995A1, “COMPOSITIONS AND METHODS FOR INHIBITING BACTERIAL VIRULENCE AND FLIM-BASED DEVICE AND METHOD FOR ANTIBIOTIC SUSCEPTIBILITY TESTING” (THE REGENTS OF THE UNIVERSITY OF CALIFORNIA, priority 2019, published 2022).

Tested on: P. aeruginosa
Experiment: Surface density measurement of P. aeruginosa from virulence assays
Type: cell-based, Pseudomonas aeruginosa
Settings: virulence assays after 6 hours of growth, carbon source 0.2%
Experimental: The density of P. aeruginosa cells on surface was measured as described previously (1) using amoebae cell viability phase contrast images that were acquired using a 10× or 20× objective. The IJ_Isodata algorithm (ImageJ 1.52q) was applied to phase contrast images to construct cell boundary masks. The cell density was computed by dividing the area covered by P. aeruginosa by the total area of the image.

O=C(O)CC(O)(CC(=O)O)C(=O)O [citrate]
surface density of P. aeruginosa: did not decrease the surface density
